Drawing on ChEMBL document CHEMBL2375325, “Anti-neuroinflammatory properties of synthetic cryptolepine in human neuroblastoma cells: possible involvement of NF-κB and p38 MAPK inhibition” (Eur J Med Chem, 2013), this text covers inhibition and Activity for one compound.

Active and inactive are the calls of the source. No cut-off for these calls is given here.

Data set [1] deals with SK-N-SH. Put plainly: Inhibition of microsomal PGES-1 gene expression in IL1beta-stimulated human SK-N-SH cells at 5 uM preincubated for 30 mins prior to IL1beta-stimulation measured after 4 hrs by qPCR analysis. The format is functional, cell-based. A general note: Real-time PCR tracks product formation cycle by cycle.
Data set [2] concerns SK-N-SH. Put plainly: Inhibition of COX2 protein expression in IL1beta-stimulated human SK-N-SH cells at 5 to 20 uM after 24 hrs by Western blotting analysis. The format is functional, cell-based.
For data set [3], the system named is SK-N-SH. Put plainly: Antiinflammatory activity against human SK-N-SH cells assessed as inhibition of IL1beta-induced PGE2 production preincubated for 30 mins prior to IL1beta-stimulation measured after 24 hrs by enzyme immunoassay. It is filed as functional, cell-based.
For data set [4], the target named is Transcription factor p65 (Homo sapiens) (UniProt Q04206). The experiment in a line: Inhibition of IL1beta-induced NFkappaB p65 nuclear translocation in human SK-N-SH cells after 15 mins by ELISA. The format is cell-based.
Data set [5] has as its system SK-N-SH. The experiment in a line: Inhibition of microsomal PGES-1 gene expression in IL1beta-stimulated human SK-N-SH cells at 2.5 uM preincubated for 30 mins prior to IL1beta-stimulation measured after 4 hrs by qPCR analysis. The format is functional, cell-based.
Data set [6] concerns SK-N-SH. Put plainly: Cytotoxicity against human SK-N-SH cells after 24 hrs by ATP assay. It is filed as cell-based.
The subject of data set [7] is SK-N-SH. Put plainly: Inhibition of microsomal PGES-1 gene expression in IL1beta-stimulated human SK-N-SH cells at 10 to 20 uM preincubated for 30 mins prior to IL1beta-stimulation measured after 4 hrs by qPCR analysis. It is filed as functional, cell-based.
The test system of data set [8] is SK-N-SH. The experiment in a line: Antiinflammatory activity against human SK-N-SH cells assessed as inhibition of IL1beta-induced IL6 production at 2.5 to 20 uM preincubated for 30 mins prior to IL1beta-stimulation measured after 24 hrs by ELISA. The format is functional, cell-based. A general note: An ELISA detects its analyte on a solid surface through an enzyme-linked reagent.

The subject of data set [9] is SK-N-SH. Put plainly: Inhibition of COX2 gene expression in IL1beta-stimulated human SK-N-SH cells at 10 to 20 uM preincubated for 30 mins prior to IL1beta-stimulation measured after 4 hrs by qPCR analysis. It is filed as functional, cell-based.
The subject of data set [10] is SK-N-SH. Put plainly: Inhibition of microsomal PGES-1 protein expression in IL1beta-stimulated human SK-N-SH cells at 2.5 uM after 24 hrs by Western blotting analysis. The format is functional, cell-based.
In data set [11] the target is T1, MAP kinase p38 (Homo sapiens) (UniProt O15264+Q15759+Q16539+P53778). The experiment in a line: Inhibition of p38 MAPK in human SK-N-SH cells assessed as inhibition of IL1beta-induced MAPKAPK2 phosphorylation preincubated for 30 mins prior to IL1beta-stimulation measured after 1 hr by Western blotting analysis. It is filed as cell-based.
For data set [12], the system named is SK-N-SH. Put plainly: Antiinflammatory activity against human SK-N-SH cells assessed as inhibition of IL1beta-induced TNFalpha production at 2.5 to 20 uM preincubated for 30 mins prior to IL1beta-stimulation measured after 24 hrs by ELISA. The format is functional, cell-based.
Data set [13] deals with SK-N-SH. The experiment in a line: Inhibition of COX2 protein expression in IL1beta-stimulated human SK-N-SH cells at 2.5 uM after 24 hrs by Western blotting analysis relative to IL1beta-treated control. It is filed as functional, cell-based.
In data set [14] the test system is SK-N-SH. The experiment in a line: Inhibition of microsomal PGES-1 protein expression in IL1beta-stimulated human SK-N-SH cells at 10 to 20 uM after 24 hrs by Western blotting analysis. The format is functional, cell-based. On the technique in general: In western blotting, separated proteins are transferred to a membrane and probed.
For data set [15], the system named is SK-N-SH. The experiment in a line: Inhibition of microsomal PGES-1 protein expression in IL1beta-stimulated human SK-N-SH cells at 5 uM after 24 hrs by Western blotting analysis. It is filed as functional, cell-based.
The target in data set [16] is T1, MAP kinase p38 (Homo sapiens). Put plainly: Inhibition of IL1beta-induced p38 MAPK phosphorylation in human SK-N-SH cells at 10 to 20 uM preincubated for 30 mins prior to IL1beta-stimulation measured after 1 hr by Western blotting analysis. The format is cell-based.
Data set [17] has as its system SK-N-SH. Put plainly: Inhibition of IL1beta-induced IkappaB phosphorylation in human SK-N-SH cells at 2.5 to 20 uM after 15 mins by ELISA. It is filed as cell-based.

Sequence of Transcription factor p65 (Homo sapiens) (Q04206 whole entry): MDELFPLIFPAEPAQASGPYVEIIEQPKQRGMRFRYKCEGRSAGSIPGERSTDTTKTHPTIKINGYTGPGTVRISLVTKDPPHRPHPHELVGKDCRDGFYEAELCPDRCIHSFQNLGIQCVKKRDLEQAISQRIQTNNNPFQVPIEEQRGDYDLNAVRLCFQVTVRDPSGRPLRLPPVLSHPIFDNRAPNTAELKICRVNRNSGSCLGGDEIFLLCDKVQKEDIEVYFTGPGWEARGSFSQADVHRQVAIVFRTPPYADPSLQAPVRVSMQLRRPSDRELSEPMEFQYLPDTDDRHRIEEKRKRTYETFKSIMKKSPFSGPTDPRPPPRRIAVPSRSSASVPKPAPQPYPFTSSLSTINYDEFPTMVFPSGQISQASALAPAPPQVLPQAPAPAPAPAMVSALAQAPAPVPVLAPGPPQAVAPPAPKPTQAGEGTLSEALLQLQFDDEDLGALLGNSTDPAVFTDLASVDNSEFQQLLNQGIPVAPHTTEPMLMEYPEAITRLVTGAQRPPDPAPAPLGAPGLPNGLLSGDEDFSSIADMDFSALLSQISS

With `C[n+]1c2ccccc2cc2[n-]c3ccccc3c21.Cl` [CRYPTOLEPINE HYDROCHLORIDE], the inhibition entry (in the data set on SK-N-SH [1]; in the data set with SK-N-SH [2]; with SK-N-SH [7]; in the data set on SK-N-SH [9]; in the data set with SK-N-SH [14]; in data set [16]) was “Active” in each case. Also, the Activity entry with SK-N-SH [3] was “Dose-dependent effect”; with SK-N-SH [6], “Non-toxic”. Moreover, the inhibition entry in [4] and in data set [11] was “Dose-dependent effect” in each case. For the same compound, the inhibition result in the data set with SK-N-SH [5], with SK-N-SH [10], with SK-N-SH [13], in the data set on SK-N-SH [15] and in the data set with SK-N-SH [17] was “inactive” each time. For the same compound, the result with SK-N-SH [8] and in the data set on SK-N-SH [12] was Active.
